{"source": "paper PMC9450014", "about": "“The evaluation of ADME and pharmacokinetic properties of decoquinate derivatives for the treatment of malaria” (Frontiers in Pharmacology, 2022)", "key": {"[1]": {"test_system": "Pf NF54", "conditions": "ref Beteck et al., 2018, cited from earlier work"}, "[2]": {"experiment": "In vivo pharmacokinetics, intravenous administration", "parameters": "species or system C57BL/6 mice", "conditions": "C57BL/6, mouse, iv, mice, whole blood, dosed compound measured", "protocol": "Healthy C57BL/6 mice each weighing approximately 25 g were maintained at the University of Cape Town animal facility. Mice were housed in 27 × 21 × 28 cm cages (n = 3) under controlled environmental conditions at 22 ± 2°C, humidity of 55 ± 15% and a 12-hour light/dark cycle. Food and water were available ad libitum. Mice were acclimatised to the experimental environment for 4–5 days prior to initiating the experiments. […] The total volume of administration was 80 μL. Blood samples were collected post-dose in lithium heparin microvials via tail bleeding at predetermined intervals at 0.16, 0.5, 1, 3, 5, 8, 10, and 24 h. Samples were gently vortexed and stored at −80°C until analysis. A quantitative LC-MS/MS assay was used to determine whole-blood concentrations of RMB005, −059 and −060. Whole blood samples (20 μL) were treated with 100 μL ice cold acetonitrile containing the compound RMB073 used previously for determination of whole blood concentrations in analysis of TB-active compounds, as internal standard (200 ng/ml) ([Tanner et al., 2019]). The mixture was vortexed vigorously for 1 min, and 5 µL of the supernatant were injected onto the analytical column following centrifugation (5,590 g for 5 min). Gradient elution was carried out using a Gemini NX-C18 analytical column (5 μm, 2.1 mm × 50 mm). The aqueous mobile phase consisted of 5 mm ammonium acetate with 0.1% acetic acid in deionised water, while the organic phase consisted of 0.1% acetic acid in acetonitrile. A Shimadzu HPLC and reverse phase Gemini NX-C18 column coupled to an AB Sciex 3200 Q TRAP MS was operated at unit resolution in the multiple reaction monitoring (MRM) mode. […] The calibration standards ranged from 2 ng/mL to 3,000 ng/mL for RMB005, and 2 ng/mL to 4,000 ng/mL for RMB059, −060 and DQ. Drug concentration versus time plots for each compound were used to determine maximal drug concentration C max, time T max to reach C max, elimination half-life t 1/2 and the area under the concentration-time curve from time zero to infinity, AUC0-inf. From these values the following PK parameters—clearance CL, volume of distribution (Vd) and oral bioavailability (BA) were determined using the non-compartmental analysis Microsoft Excel Add-In PKSolver ([Zhang et al., 2010])."}, "[3]": {"experiment": "Passive permeability, parallel artificial membrane permeation assay (PAMPA)", "format": "in vitro ADME", "conditions": "donor pH 6.5, acceptor pH 7.4, 4 h, read-out: Permeability (LogPapp) (converted)", "protocol": "A parallel artificial membrane permeation assay (PAMPA) was used to assess the passive permeability of compounds with a 96-well MultiScreen filter plate ([…] pore size, Millipore). The filter plate was precoated with 5% hexadecane in hexane. Stock solutions of compounds were diluted to 1 mM in a donor buffer (pH 6.5). Lucifer yellow was added to the apical wells of the precoated MultiScreen plate containing compound donor solution. The donor buffer solutions were spiked with each test compound (1 mM). The acceptor-buffer solution was prepared by adding 10 μL DMSO to 990 μL acceptor buffer (pH 7.4) and 250 μL were added to the basolateral (acceptor) wells. The donor plate was carefully inserted into the acceptor plate and incubated at room temperature for 4 h. After the incubation period, 50 μL of samples from the acceptor plate were transferred to a round bottom 96-well plate, together with 30 μL of donor buffer for matrix matching. Theoretical equilibrium samples for each test compound were prepared by adding 150 μL of donor solutions to 250 μL acceptor solutions and left at room temperature. These theoretical equilibrium samples represent complete transfer of the compound into the donor well. For the theoretical equilibrium samples, 80 μL were added to the analysis plate. Lastly, 160 μL of the internal standard carbamazepine (0.1 μM) was added to all acceptor and equilibrium samples. A portion of the sample containing Lucifer yellow was analyzed on a BioRad iMark^TM Microplate Absorbance Reader (BioRad, Hercules, CA, United States; excitation 490 nm, emission 510–570 nm) to determine that P app was within the acceptable range (<50 nm/s). Samples were analysed using reverse phase Gemini NX-C18 column (5 μM, 2.1 mm × 50 mm) with a Shimadzu HPLC coupled with an AB Sciex 3200 Q TRAP MS). The Papp for each compound was determined using. C=VD × VA/(VD+VA) ×A×t where VA = volume of donor compartment (0.15 cm^3), VD = volume of acceptor compartment (0.25 cm^3), A = accessible filter area (0.24 cm^2) and t = incubation time (14,400 s). […]"}, "[4]": {"experiment": "Kinetic solubility in PBS (HPLC-DAD)", "format": "physicochemical", "conditions": "phosphate buffer saline (PBS); for solubility kinetic at 2 h: aqueous buffer, kinetic from dmso stock", "protocol": "Stock concentrations of test samples (10 mM) were prepared in DMSO and diluted to a final concentration of […] in phosphate buffer saline (PBS) solutions at pH 2, 6.5, and 7.4 in flat-bottomed 96-well plates. A three-point calibration curve of each control and test compound was prepared from stock solutions in DMSO. Plates were agitated on an orbital shaker at room temperature for 2 h at 200 rpm and subsequently analysed using a reverse phase Gemini NX-C18 column (5 μM, 2.1 mm × 50 mm) with an Agilent 1,200 Rapid Resolution HPLC and diode array detection."}}, "note": "Where two headings read alike, the source gives them in different places."}
{"smiles": "CCCCCCCCCCOc1cc2c(=O)c(C(=O)NCCOCCO)c[nH]c2cc1OCC", "note": "[RMB005]", "values": [{"measurement": "IC50", "setting": "[1]; Pf NF54, read-out: NF54 IC50 (line in the PK figures, in vitro IC50 in the discussion)", "result": 40, "unit": "nM"}, {"measurement": "IC50", "setting": "[1]; read-out: IC50 against Pf NF54", "result": 40.4, "unit": "nM"}, {"measurement": "Vd", "setting": "[2]; 5 mg/kg per table footnote", "result": "6.59 ± 1.83", "unit": "L/kg"}, {"measurement": "clearance", "setting": "[2]; 5 mg/kg per table footnote", "result": "28.5 ± 2.17", "unit": "mL/min/kg"}, {"measurement": "half-life", "setting": "[2]; 5 mg/kg per table footnote (10 mg/kg per method)", "result": "2.62 ± 0.61", "unit": "h"}, {"measurement": "Papp at 4 h, 1 mM", "setting": "[3]", "result": 0.501, "unit": "×10⁻⁶ cm/s"}, {"measurement": "solubility kinetic at 2 h", "setting": "[4]; PBS pH 2, read-out: Kinetic solubility pH 2", "result": "< 5", "unit": "µM"}, {"measurement": "solubility kinetic at 2 h", "setting": "[4]; PBS pH 6.5, read-out: Kinetic solubility pH 6.5", "result": "< 5", "unit": "µM"}, {"measurement": "solubility kinetic at 2 h", "setting": "[4]; PBS pH 7.4, read-out: Kinetic solubility pH 7.4", "result": "< 5", "unit": "µM"}, {"measurement": "solubility at 2 h", "setting": "[4]; all pH levels tested (pH 2, 6.5, 7.4)", "result": "< 5", "unit": "µM"}]}
